According to patent publication US11130769B2 (Prelude Therapeutics Incorporated, priority 2018, dated 2021):
Read-outs that look alike come from different tables or passages of the source.

Columns and labels:
H929 cells = assay: Cell viability assay (H929 10 FBS); assay type: cell-based; details: Homo sapiens, NCI-H929, 24 hours, read-out: H929_10FBS IC50
How it was run: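 ATP-based luminescence (CellTiter-Glo or ATPlite 1 Step, 30-60 min at RT) gauged viability of H929 myeloma cells after 24 h compound treatment at 37 °C. Cells plated at 4000 per well in 10% FBS RPMI 1640 supplemented with pyruvate, HEPES and glucose.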

MCL-1 = MCL-1 (Homo sapiens (Human), UniProt Q07820); assay: Cell free Mcl-1:Bim affinity assay (fluorescence polarization competition); assay type: binding; details: 15 nM MCL-1, 5 nM FITC-Bim, 1 hour at room temperature, read-out: BIM_Ki
Sequence of MCL-1 (Q07820 whole entry): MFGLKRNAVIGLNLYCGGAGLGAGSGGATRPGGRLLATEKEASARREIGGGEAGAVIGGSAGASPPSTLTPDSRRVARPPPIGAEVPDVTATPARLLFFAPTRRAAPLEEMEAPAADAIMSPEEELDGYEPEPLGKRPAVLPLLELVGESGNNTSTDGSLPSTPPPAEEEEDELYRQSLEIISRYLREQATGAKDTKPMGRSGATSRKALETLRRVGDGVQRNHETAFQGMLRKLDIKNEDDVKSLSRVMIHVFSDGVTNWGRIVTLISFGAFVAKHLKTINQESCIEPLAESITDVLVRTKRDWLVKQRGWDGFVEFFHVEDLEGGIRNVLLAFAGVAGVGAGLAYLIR
How it was run: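 Fluorescence polarization competition: 10-point 3-fold compound dilutions displaced 5 nM FITC-Bim from 15 nM MCL-1 over 1 h at room temperature. Ki was derived from the fitted IC50 using the Nikolovska-Coleska equation, with percent inhibition normalized to DMSO and positive controls.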

## CCN(CC)CCO[C@H]1/C=C/COC(C)(C)C(=O)NS(=O)(=O)c2ccc3c(c2)N(C[C@@H]2CC[C@H]21)C[C@@]1(CCCc2cc(Cl)ccc21)CO3 [Example 268, (3R,6R,7S,8E,22S)-6′-Chloro-7-[2-(diethylamino)ethoxy]-12,12-dimethyl-15,15-dioxo-spiro[11,20-dioxa-15-thia-1,14-diazatetracyclo[14.7.2.03,6.019,24]pentacosa-8,16,18,24-tetraene-22,1′-tetralin]-13-one]
H929 cells
  IC50: < 500 nM
MCL-1; class symbols
  Ki: < 1 nM

## CCN1C/C=C/[C@H](OC(=O)N2CC(NC)C2)[C@@H]2CC[C@H]2CN2C[C@@]3(CCCc4cc(Cl)ccc43)COc3ccc(cc32)S(=O)(=O)NC(=O)C1(C)C [Example 223, [(3R,6R,7S,8E,22S)-6′-Chloro-11-ethyl-12,12-dimethyl-13,15,15-trioxo-spiro[20-oxa-15-thia-1,11,14-triazatetracyclo[14.7.2.03,6.019,24]pentacosa-8,16,18,24-tetraene-22,1′-tetralin]-7-yl] 3-(methylamino)azetidine-1-carboxylate]
H929 cells
  IC50: < 500 nM
MCL-1; class symbols
  Ki: < 1 nM

## CC1(C)OC/C=C/[C@H](OC(=O)N2CC3CCC(C2)O3)[C@@H]2CC[C@H]2CN2C[C@@]3(CCCc4cc(Cl)ccc43)COc3ccc(cc32)S(=O)(=O)NC1=O [Example 170, [(3R,6R,7S,8E,22S)-6′-Chloro-12,12-dimethyl-13,15,15-trioxo-spiro[11,20-dioxa-15-thia-1,14-diazatetracyclo[14.7.2.03,6.019,24]pentacosa-8,16,18,24-tetraene-22,1′-tetralin]-7-yl] 8-oxa-3-azabicyclo[3.2.1]octane-3-carboxylate]
H929 cells
  IC50: < 1000 nM
MCL-1; class symbols
  Ki: < 1 nM

## O=C1Cc2cccc(c2)OC[C@@H]2CC[C@H]2CN2C[C@@]3(CCCc4cc(Cl)ccc43)COc3ccc(cc32)S(=O)(=O)N1 [Example 18, (3R,6R,24S)-6′-Chloro-17,17-dioxo-spiro[8,22-dioxa-17λ^6-thia-1,16-diazapentacyclo[16.7.2.1^9,13.0^3,6.0^21,26]octacosa-9(28),10,12,18(27),19,21(26)-hexaene-24,1′-tetralin]-15-one]
H929 cells
  IC50: > 1000 nM
MCL-1; numeric values
  Ki: 1.4 nM

## CN(C(=O)O[C@H]1/C=C/CN(C)C2(CCC2)C(=O)NS(=O)(=O)c2ccc3c(c2)N(C[C@@H]2CC[C@H]21)C[C@@]1(CCCc2cc(Cl)ccc21)CO3)[C@@H]1CCOC1 [Example 242, [(3R,6R,7S,8E,22S)-6′-Chloro-11-methyl-12,12-(1,3-propylene)-13,15,15-trioxo-spiro[20-oxa-15-thia-1,11,14-triazatetracyclo[14.7.2.03,6.019,24]pentacosa-8,16,18,24-tetraene-22,1′-tetralin]-7-yl] N-methyl-N-[(3R)-tetrahydrofuran-3-yl]carbamate]
H929 cells
  IC50: < 500 nM
MCL-1; class symbols
  Ki: < 1 nM

## CCN1C/C=C/[C@H](OC(=O)NC2CCOCC2)[C@@H]2CC[C@H]2CN2C[C@@]3(CCCc4cc(Cl)ccc43)COc3ccc(cc32)S(=O)(=O)NC(=O)C1(C)C [Example 220, [(3R,6R,7S,8E,22S)-6′-Chloro-11-ethyl-12,12-dimethyl-13,15,15-trioxo-spiro[20-oxa-15-thia-1,11,14-triazatetracyclo[14.7.2.03,6.019,24]pentacosa-8,16,18,24-tetraene-22,1′-tetralin]-7-yl]N-tetrahydropyran-4-ylcarbamate]
H929 cells
  IC50: < 500 nM
MCL-1; class symbols
  Ki: < 1 nM

## CC1(C)OC/C=C/[C@H](OC(=O)N2CCC(O)CC2)[C@@H]2CC[C@H]2CN2C[C@@]3(CCCc4cc(Cl)ccc43)COc3ccc(cc32)S(=O)(=O)NC1=O [Example 190, [(3R,6R,7S,8E,22S)-6′-Chloro-12,12-dimethyl-13,15,15-trioxo-spiro[11,20-dioxa-15-thia-1,14-diazatetracyclo[14.7.2.03,6.019,24]pentacosa-8,16,18,24-tetraene-22,1′-tetralin]-7-yl] 4-hydroxypiperidine-1-carboxylate]
H929 cells
  IC50: < 500 nM
MCL-1; class symbols
  Ki: < 1 nM
